Assay results published in US6479487B1, “6, 9-disubstituted 2-[trans-(4-aminocyclohexyl)amino] purines” (Aventis Pharmaceuticals Inc., priority 1998, dated 2002).
Where “and” joins values, the source holds several entries; their conditions need not be identical. Equal values may be shown once. Where a name gives a salt, the structure may show the parent alone. Read-outs that look alike come from different tables or passages of the source.

Legend:
HT-29 = assay: In vitro tumor cell proliferation, HT-29; assay type: cell-based, human; details: many values given with an undefined *, read-out: In vitro Tumor Cell Proliferation (IC50, μM) Colon HT-29
Procedure, shortened: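 HT-29 cells seeded overnight at 37° C, then exposed to drug for 3 days, refed with fresh drug-containing medium for 4 more days. Proliferation read by sulforhodamine B staining after TCA fixation; alternatively by CyQUANT after freezing plates at −80° C following 3 days' drug exposure.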

Colo-205 = assay: In vitro tumor cell proliferation, Colo-205; assay type: cell-based; details: values given with an undefined *, read-out: In vitro Tumor Cell Proliferation (IC50, μM) Colon Colo-205
Procedure, shortened: (§1)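 SRB read-out: cells seeded overnight, 37° C; drug 3 d, medium plus fresh drug replaced, +4 d; TCA fix 60 min 4° C, 0.4% SRB stain 30 min. Alt. CyQUANT: drug 3 d, plates frozen −80° C before read.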

MDA-MB-435 = assay: In vitro tumor cell proliferation, MDA-MB-435; assay type: cell-based; details: values given with an undefined *, read-out: In vitro Tumor Cell Proliferation (IC50, μM) Breast MDA-MB-435
Procedure, shortened: as §1

DMS-114 = assay: In vitro tumor cell proliferation, DMS-114; assay type: cell-based, human; details: many values given with an undefined *, read-out: In vitro Tumor Cell Proliferation (IC50, μM) Lung DMS-114
Procedure, shortened: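 Human small cell lung carcinoma DMS-114 cells plated overnight, then drug-treated for 3 days, medium and drug renewed, and incubated 4 more days. Growth read by sulforhodamine B staining after TCA fixation; alternatively by CyQUANT after 3 days' drug exposure and freezing at −80 °C.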

MDA-MB-231 = assay: In vitro tumor cell proliferation, MDA-MB-231; assay type: cell-based, human; details: sulforhodamine B or CyQUANT assay, many values given with an undefined *, read-out: In vitro Tumor Cell Proliferation (IC50, μM) Breast MDA-MB-231
Procedure, shortened: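 Cells plated overnight at 37 °C, then exposed to drug for 3 days, refed with fresh drug and incubated 4 more days. Read-out by sulforhodamine B staining after TCA fixation; alternatively, CyQUANT after 3-day drug exposure and freezing at −80 °C.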

cdk2/cyclin E = molecular target: T1, cdk2/cyclin E (Homo sapiens, UniProt P24941); assay: Cyclin-Dependent Kinase 2 Assay (cdk2/cyclin E, GST-Rb substrate); assay type: biochemical; details: recombinant cdk2/cyclin E, 10 μM ATP, 30 min at 30° C., several values in a cell = separate determinations, read-out: CDK-2 Inhibition IC50
T1 construct: made in house; host or cells: insect cells (baculovirus co-infection)
Method: Substrate: GST-Rb as described above for cdk4/cyclin D1
Assay conditions for cdk2/cyclin E were identical to those for cdk4/cyclin D1 including the substrate. The concentration of recombinant cdk2/cyclin E in the assay was 0.1 μg per 100 μl assay. Incubation was for 30 min at 30° C.

A549 = assay: In vitro tumor cell proliferation, A549; assay type: cell-based, human; details: many values given with an undefined *, read-out: In vitro Tumor Cell Proliferation (IC50, μM) Lung A549
Procedure, shortened: as §1

cdk4/cyclin D1 = molecular target: T2, cdk4/cyclin D1 (Homo sapiens, UniProt P11802); assay: Cyclin-dependent Kinase 4 Assay (cdk4/cyclin D1, GST-Rb substrate); assay type: biochemical; details: cdk4/cyclin D1 insect cell lysate, 10 μM ATP, 30 min at 37° C., several values = separate determinations, read-out: CDK4 Inhibition IC50
T2 construct: made in house; host or cells: Sf9 insect cells (Bac-to-Bac baculovirus, pFastBac)
Procedure, shortened: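 Insect-cell lysate of coexpressed cdk4/cyclin D1 (0.1 μg) acts on GST-Rb (0.5 μg) bound to glutathione-Sepharose, in 50 mM HEPES pH 7.5, 10 mM MgCl2, 1 mM EGTA. Reaction runs 30 min at 37 °C, then is stopped by filtration and TNEN washes. Rb phosphorylation read by scintillation counting; IC50 derived.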

DU145 = assay: In vitro tumor cell proliferation, DU145; assay type: cell-based, human; details: many values given with an undefined *, read-out: In vitro Tumor Cell Proliferation (IC50, μM) Prostate DU145
Procedure, shortened: as §1

PC-3 = assay: In vitro tumor cell proliferation, PC-3; assay type: cell-based, human; details: many values given with an undefined *, read-out: In vitro Tumor Cell Proliferation (IC50, μM) Prostate PC-3
Procedure, shortened: as §1

[1] = Homo sapiens, COLO 205, Colo-205
[2] = Homo sapiens, MDA-MB-435, MDA-MB-435
[3] = Homo sapiens, MDA-MB-231, MDA-MB-231

T2 sequence (P11802 whole entry): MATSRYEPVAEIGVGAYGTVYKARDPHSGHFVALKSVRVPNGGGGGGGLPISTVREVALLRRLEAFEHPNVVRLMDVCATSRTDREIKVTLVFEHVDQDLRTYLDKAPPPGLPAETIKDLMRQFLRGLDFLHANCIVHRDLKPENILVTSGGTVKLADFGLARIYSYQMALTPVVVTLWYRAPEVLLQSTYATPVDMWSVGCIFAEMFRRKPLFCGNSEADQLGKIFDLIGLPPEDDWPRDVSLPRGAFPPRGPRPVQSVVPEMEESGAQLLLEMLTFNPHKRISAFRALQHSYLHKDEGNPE
T2 sequence (P24385 whole entry partner): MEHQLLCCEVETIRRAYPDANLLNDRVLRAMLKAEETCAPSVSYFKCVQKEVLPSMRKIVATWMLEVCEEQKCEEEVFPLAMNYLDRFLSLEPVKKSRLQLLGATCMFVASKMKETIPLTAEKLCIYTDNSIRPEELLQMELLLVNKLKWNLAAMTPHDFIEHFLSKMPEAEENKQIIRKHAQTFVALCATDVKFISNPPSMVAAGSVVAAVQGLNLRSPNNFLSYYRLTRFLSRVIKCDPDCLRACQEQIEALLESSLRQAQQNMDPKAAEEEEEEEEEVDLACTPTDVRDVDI

SMILES | IC50 (HT-29; HT-29, trihydrochloride) | IC50 (HT-29; Homo sapiens, HT-29, HT-29) | IC50 (Colo-205; Colo-205, trihydrochloride) | IC50 (Colo-205; [1]) | IC50 (MDA-MB-435; [2]) | IC50 (MDA-MB-435; MDA-MB-435, trihydrochloride) | IC50 (DMS-114; DMS-114, trihydrochloride) | IC50 (DMS-114; Homo sapiens, DMS-114, DMS-114) | IC50 (MDA-MB-231; MDA-MB-231, trihydrochloride) | IC50 (cdk2/cyclin E) | IC50 (A549; A549, trihydrochloride) | IC50 (A549; Homo sapiens, A549, A549) | IC50 (cdk4/cyclin D1) | IC50 (DU145; DU145, trihydrochloride) | IC50 (DU145; Homo sapiens, DU-145, DU145) | IC50 (PC-3; PC-3, trihydrochloride) | IC50 (MDA-MB-231; [3]) | IC50 (PC-3; Homo sapiens, PC-3, PC-3) | IC50 (cdk2/cyclin E; trihydrochloride) | IC50 (cdk4/cyclin D1; trihydrochloride)
N[C@H]1CC[C@H](Nc2nc(NC3CCN(CC4CCCCC4)CC3)c3ncn(C4CCCC4)c3n2)CC1 [Example 147-s, 2-[Trans-(4-aminocyclohexyl)amino]-6-[4-(1-cyclohexylmethyl)piperidinylamino]-9-cyclopentylpurine trihydrochloride] | 0.33 µM | 0.35 µM | 0.23 µM | 0.28 µM | 0.42 µM | 0.43 µM | 0.3 µM | 0.57 µM | 0.33 µM | 120 nM and 100 nM | 0.2 µM | 0.22 µM | 1300 nM and 620 nM | 0.27 µM | 0.29 µM | 0.37 µM | – | – | – | –
N[C@H]1CC[C@H](Nc2nc(NC3CCN(Cc4ccc(F)cc4Cl)CC3)c3ncn(C4CCCC4)c3n2)CC1 [Example 147-t, 2-[Trans-(4-aminocyclohexyl)amino]-6-[4-[1-(2-chloro-4-fluorobenzyl)]piperidinylamino]-9-cyclopentylpurine trihydrochloride] | 0.48 µM | 0.42 µM | 0.36 µM | – | 0.41 µM | 0.69 µM | 0.46 µM | 0.71 µM | – | 250 nM and 160 nM and 340 nM | 0.28 µM | 0.3 µM | 2200 nM and 1700 nM | 0.38 µM | 0.33 µM | 0.45 µM | 0.37 µM | 0.37 µM | – | –
N[C@H]1CC[C@H](Nc2nc(NC3CCN(Cc4ccc(F)c(F)c4)CC3)c3ncn(C4CCCC4)c3n2)CC1 [Example 147-u, 2-[Trans-(4-aminocyclohexyl)amino]-6-[4-[1-(3,4-difluorobenzyl)]piperidinylamino]-9-cyclopentylpurine trihydrochloride] | 0.33 µM | 0.41 µM | 0.22 µM | 0.28 µM | 0.47 µM | 0.48 µM | 0.35 µM | 0.62 µM | 0.36 µM | 150 nM and 110 nM | 0.19 µM | 0.27 µM | 2800 nM and 2600 nM | 0.28 µM | 0.38 µM | 0.43 µM | 0.33 µM | 0.35 µM | – | –
N[C@H]1CC[C@H](Nc2nc(NC3CCN(Cc4c(F)cccc4F)CC3)c3ncn(C4CCCC4)c3n2)CC1 [Example 147-v, 2-[Trans-(4-aminocyclohexyl)amino]-6-[4-[1-(2,6-difluorobenzyl)]piperidinylamino]-9-cyclopentylpurine trihydrochloride] | 0.83 µM | 0.76 µM | 0.77 µM | 0.58 µM | 1 µM | 1.3 µM | 1.1 µM | 1.9 µM | 1.2 µM | 240 nM | 0.63 µM | 0.5 µM | 2000 nM and 3400 nM | 0.57 µM | 0.52 µM | 1.1 µM | 0.63 µM | 0.85 µM | – | –

More lines, now with the values ahead:

IC50 (HT-29; HT-29, trihydrochloride) | IC50 (HT-29; Homo sapiens, HT-29, HT-29) | IC50 (Colo-205; Colo-205, trihydrochloride) | IC50 (Colo-205; [1]) | IC50 (MDA-MB-435; [2]) | IC50 (MDA-MB-435; MDA-MB-435, trihydrochloride) | IC50 (DMS-114; DMS-114, trihydrochloride) | IC50 (DMS-114; Homo sapiens, DMS-114, DMS-114) | IC50 (MDA-MB-231; MDA-MB-231, trihydrochloride) | IC50 (cdk2/cyclin E) | IC50 (A549; A549, trihydrochloride) | IC50 (A549; Homo sapiens, A549, A549) | IC50 (cdk4/cyclin D1) | IC50 (DU145; DU145, trihydrochloride) | IC50 (DU145; Homo sapiens, DU-145, DU145) | IC50 (PC-3; PC-3, trihydrochloride) | IC50 (MDA-MB-231; [3]) | IC50 (PC-3; Homo sapiens, PC-3, PC-3) | IC50 (cdk2/cyclin E; trihydrochloride) | IC50 (cdk4/cyclin D1; trihydrochloride) | SMILES
0.39 µM | 0.37 µM | – | 0.32 µM | 0.57 µM | 0.51 µM | – | 0.45 µM | 0.4 µM | 130 nM and 180 nM | – | 0.21 µM | 4000 nM and 2100 nM | 0.39 µM | 0.35 µM | 0.46 µM | 0.35 µM | 0.44 µM | – | – | N[C@H]1CC[C@H](Nc2nc(NC3CCN(Cc4cc(Cl)cc(Cl)c4)CC3)c3ncn(C4CCCC4)c3n2)CC1 [Example 147-w, 2-[Trans-(4-aminocyclohexyl)amino]-6-[4-[1-(3,5-dichlorobenzyl)]piperidinylamino]-9-cyclopentylpurine trihydrochloride]
0.6 µM | 0.72 µM | 0.62 µM | 0.59 µM | 0.75 µM | 0.92 µM | 0.7 µM | 1 µM | 0.67 µM | 320 nM | 0.45 µM | 0.44 µM | 3800 nM and 3900 nM | 0.53 µM | 0.49 µM | 0.65 µM | 0.85 µM | 0.54 µM | – | – | N[C@H]1CC[C@H](Nc2nc(NC3CCN(Cc4ccc(Cl)cc4Cl)CC3)c3ncn(C4CCCC4)c3n2)CC1 [Example 147-x, 2-[Trans-(4-aminocyclohexyl)amino]-6-[4-[1-(2,4-dichlorobenzyl)]piperidinylamino]-9-cyclopentylpurine trihydrochloride]
0.41 µM and 0.38 µM | – | 0.32 µM and 0.35 µM | – | – | 0.47 µM and 0.55 µM | 0.4 µM and 0.45 µM | – | 0.34 µM and 0.35 µM | – | 0.16 µM and 0.29 µM | – | – | 0.33 µM and 0.35 µM | – | 0.35 µM and 0.46 µM | – | – | 510 nM and 670 nM | 5400 nM and 4800 nM | Cc1ccc(CN2CCC(Nc3nc(N[C@H]4CC[C@H](N)CC4)nc4c3ncn4C3CCCC3)CC2)cc1Cl [Example 147-y, 2-[Trans-(4-aminocyclohexyl)amino]-6-[4-[1-(3-chloro-4-methylbenzyl)]piperidinylamino]-9-cyclopentylpurine trihydrochloride]
0.43 µM and 0.44 µM | – | 0.38 µM and 0.46 µM | – | – | 0.5 µM and 0.57 µM | 0.34 µM and 0.42 µM | – | 0.37 µM and 0.35 µM | – | 0.18 µM and 0.3 µM | – | – | 0.28 µM and 0.36 µM | – | 0.33 µM and 0.44 µM | – | – | 720 nM and 1000 nM | 7900 nM and 5700 nM | N[C@H]1CC[C@H](Nc2nc(NC3CCN(Cc4ccc(OC(F)(F)F)cc4)CC3)c3ncn(C4CCCC4)c3n2)CC1 [Example 147-z, 2-[Trans-(4-aminocyclohexyl)amino]-6-[4-[1-(4-trifluoromethoxybenzyl)]piperidinylamino]-9-cyclopentylpurine trihydrochloride]
